Where “and” joins values, the source holds several entries; their conditions need not be identical. Equal values may be shown once.

What is called IC50 is the point on the concentration scale where inhibition reaches its midpoint.

RIPK1, sequence (Q13546 1-327): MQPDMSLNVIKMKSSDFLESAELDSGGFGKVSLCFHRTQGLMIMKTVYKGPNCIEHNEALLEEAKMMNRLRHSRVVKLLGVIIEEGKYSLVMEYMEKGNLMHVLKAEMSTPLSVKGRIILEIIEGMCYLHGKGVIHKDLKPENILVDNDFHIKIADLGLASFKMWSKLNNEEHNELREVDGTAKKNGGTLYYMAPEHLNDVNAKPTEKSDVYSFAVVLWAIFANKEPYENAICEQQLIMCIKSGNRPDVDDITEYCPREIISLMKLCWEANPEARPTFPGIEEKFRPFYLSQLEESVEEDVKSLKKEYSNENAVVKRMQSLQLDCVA

The target of one assay is RIPK1 (Homo sapiens (Human), UniProt Q13546). As to the kind of experiment: ADP-Glo kinase assay (RIPK1 activity, conversion of ATP to ADP). The format is biochemical. Conditions: 5 nM RIPK1, 50 μM ATP, 6 h reaction; footnote symbol (a); read-out: RIPK1 Enzyme Avg IC50. As for the experimental part:
In order to measure RIPK1 activity the ADP-Glo kinase assay (Promega, Catalog #V7002) was used to measure the conversion of ATP to ADP. This enzymatic assay was performed in a 384-well white, Optiplate (Perkin Elmer, Catalog #6007299) with assay buffer consisting of 50 mM HEPES pH 7.5 (Gibco, Catalog #15630-080), 50 mM NaCl (Teknova, Catalog #S0252), 30 mM MgCl2 (Ambion, Catalog #AM9530G), 1 mM DTT (Santa Cruz Biotechnology, Catalog #sc-29089), 0.05% BSA (Sigma, Catalog #A3059-50G) and 0.02% CHAPS (Sigma, Catalog #C5070-5G). Stock solutions of the test compounds were prepared in 100% DMSO (Sigma, Catalog #D2650) and serially diluted 1:3 using 100% DMSO. Compounds were additionally diluted 1:40 in assay buffer, and 2 μL/well were transferred to the assay plate. 4 μL/well (final concentration of 5 nM) of RIPK1 protein (SignalChem, Catalog #R07-1IG-05) diluted in assay buffer and added to the assay plate followed by a 10 minute preincutation at rt. 4 μL/well of ATP (Promega, Catalog #V7002) (final concentration of 50 μM) diluted in assay buffer were then added to the assay plate followed by a 6 h reaction time. Final concentrations of RIPK1 and ATP refer to a 10 μL volume. Luminescence was measured using a BioTek Synergy™ NEO plate reader. IC50 values were calculated using a four-parameter logistic curve fit using Genedata Screener software.
As for `C[C@H](NC(=O)C12CC(CO)(C1)C2)c1cc(F)cc(F)c1` [Example 90, (S)-N-(1-(3,5-difluoro-phenyl)ethyl)-3-(hydroxymethyl)-bicyclo[1.1.1]pentane-1-carboxamide], the IC50 is more than 50000 nM.
The same measure, in the same setting: with `O=C(NCc1cc(F)cc(F)c1)C12CC(CO)(C1)C2` [Example 91, N-(3,5-difluorobenzyl)-3-(hydroxymethyl)bicyclo-[1.1.1]pentane-1-carboxamide] the figure was more than 50000 nM; with `Cc1cccc(C2CCCN2C(=O)C23CC(Nc4nccc(C#N)n4)(C2)C3)c1` (stereo not shown) [Example 105, 2-((3-(2-(m-tolyl)pyrrolidine-1-carbonyl)bicyclo[1.1.1]-pentan-1-yl)amino)-pyrimidine-4-carbonitrile], more than 50000 nM.
The same measure, in the same setting: with `COC(=O)C12CC(C(=O)N[C@@H](C)c3cc(F)cc(F)c3)(C1)C2` [Example 115, methyl (S)-3-((1-(3,5-difluorophenyl)ethyl)-carbamoyl)bicyclo[1.1.1]-pentane-1-carboxylate] the figure was more than 50000 nM; with `N#CC12CC(C(=O)N3CCC(Oc4ccccc4)C3)(C1)C2` (stereo not shown) [Example 116, 3-(3-phenoxypyrrolidine-1-carbonyl)bicyclo[1.1.1]-pentane-1-carbonitrile], more than 50000 nM.
As for `Cc1cccc(C2CCCN2C(=O)C23CC(NC(=O)c4ccccc4)(C2)C3)c1` (stereo not shown) [Example 117, N-(3-(2-(m-tolyl)pyrrolidine-1-carbonyl)bicyclo[1.1.1]-pentan-1-yl)benzamide], the IC50 was more than 50000 nM.
In the case of `CCC(=O)NC12CC(C(=O)N3CCCC3c3cccc(C)c3)(C1)C2` (stereo not shown) [Example 118, N-(3-(2-(m-tolyl)pyrrolidine-1-carbonyl)bicyclo[1.1.1]-pentan-1-yl)propionamide], the IC50 is more than 50000 nM.
Turning to `CC(=O)NC12CC(C(=O)N3CCCC3c3cccc(C)c3)(C1)C2` (stereo not shown) [Example 119, N-(3-(2-(m-tolyl)pyrrolidine-1-carbonyl)bicyclo[1.1.1]-pentan-1-yl)acetamide], the IC50 was more than 50000 nM.
Still for that read-out and setting: with `Cc1cccc(C2CCCN2C(=O)C23CC(O)(C2)C3)c1` (stereo not shown) [Example 120, (3-hydroxybicyclo[1.1.1]-pentan-1-yl)(2-(m-tolyl)-pyrrolidin-1-yl)methanone] the figure was more than 50000 nM.
As to `COC(=O)C12CC(C(=O)NCc3cc(F)cc(F)c3)(C1)C2` [Example 121, methyl 3-((3,5-difluoro-benzyl)carbamoyl)-bicyclo[1.1.1]pentane-1-carboxylate], the IC50 is more than 50000 nM.

The assay is the same for the next values; noted with them: 5 nM RIPK1, 50 μM ATP, 6 h reaction; read-out: RIPK1 Enzyme Avg IC50.
Regarding `CS(=O)(=O)C1CN(CC23CC(C(=O)N4N=CCC4c4cc(F)cc(F)c4)(C2)C3)C1` (stereo not shown) [Example 80, (5-(3,5-difluorophenyl)-4,5-dihydro-1H-pyrazol-1-yl)(3-((3-(methylsulfonyl)azetidin-1-yl)methyl)bicyclo[1.1.1]-pentan-1-yl)methanone], the IC50 came to 24700 nM.
In the case of `O=C(N1N=CCC1c1cc(F)cc(F)c1)C12CC(Cn3nc4ccccc4n3)(C1)C2` (stereo not shown) [Example 86, (3-((2H-benzo[d][1,2,3]-triazol-2-yl)methyl)bicyclo-[1.1.1]pentan-1-yl)(5-(3,5-difluorophenyl)-4,5-dihydro-1H-pyrazol-1-yl)methanone], the IC50 was found to be 19 nM.
`NC(=O)c1ccnc(OCC23CC(C(=O)N4CC(F)CC4c4cccc(F)c4)(C2)C3)n1` (stereo not shown) [Example 95, 2-((3-(4-fluoro-2-(3-fluoro-phenyl)pyrrolidine-1-carbonyl)bicyclo[1.1.1]-pentan-1-yl)methoxy)-pyrimidine-4-carboxamide]: the IC50 is 151 nM.
Same read-out and setting: the same measure for `N#Cc1cncc(OCC23CC(C(=O)N4CC(F)CC4c4cccc(F)c4)(C2)C3)n1` (stereo not shown) [Example 96, 6-((3-(4-fluoro-2-(3-fluoro-phenyl)pyrrolidine-1-carbonyl)bicyclo[1.1.1]-pentan-1-yl)methoxy)-pyrazine-2-carbonitrile]: 162 nM.
Turning to `O=C(N1CC(F)CC1c1cccc(F)c1)C12CC(COc3ncc(F)cn3)(C1)C2` (stereo not shown) [Example 97, (4-fluoro-2-(3-fluorophenyl)-pyrrolidin-1-yl)(3-(((5-fluoropyrimidin-2-yl)oxy)-methyl)bicyclo[1.1.1]pentan-1-yl)methanone], the IC50 came out at 219 nM.
The same measure, in the same setting: with `NC(=O)c1cc(OCC23CC(C(=O)N4CC(F)CC4c4cccc(F)c4)(C2)C3)ncn1` (stereo not shown) [Example 98, 6-((3-(4-fluoro-2-(3-fluorophenyl)pyrrolidine-1-carbonyl)bicyclo[1.1.1]-pentan-1-yl)methoxy)-pyrimidine-4-carboxamide] the figure was 240 nM; with `N#Cc1cc(OCC23CC(C(=O)N4CC(F)CC4c4cccc(F)c4)(C2)C3)ccn1` (stereo not shown) [Example 99, 4-((3-(4-fluoro-2-(3-fluorophenyl)pyrrolidine-1-carbonyl)bicyclo[1.1.1]-pentan-1-yl)methoxy)-picolinonitrile], 280 nM.
Same read-out and setting: the same measure for `N#Cc1cnc(OCC23CC(C(=O)N4CC(F)CC4c4cccc(F)c4)(C2)C3)nc1` (stereo not shown) [Example 100, 2-((3-(4-fluoro-2-(3-fluorophenyl)pyrrolidine-1-carbonyl)bicyclo[1.1.1]-pentan-1-yl)methoxy)-pyrimidine-5-carbonitrile]: 284 nM; for `C[C@H](NC(=O)C12CC(COc3cc(C#N)ncn3)(C1)C2)c1cc(F)cc(F)c1` [Example 102, (S)-3-(((6-cyanopyrimidin-4-yl)oxy)methyl)-N-(1-(3,5-difluorophenyl)ethyl)-bicyclo[1.1.1]pentane-1-carboxamide]: 2000 nM.
On to `O=C(N1CC(F)CC1c1cccc(F)c1)C12CC(COc3cccc4nncn34)(C1)C2` (stereo not shown) [Example 103, (3-(([1,2,4]triazolo[4,3-a]-pyridin-5-yloxy)methyl)-bicyclo[1.1.1]pentan-1-yl)(4-fluoro-2-(3-fluorophenyl)-pyrrolidin-1-yl)methanone], for which the IC50 turned out to be 2660 nM.
Same read-out and setting: the same measure for `N#Cc1cc(OCC23CC(C(=O)NCc4cc(F)cc(F)c4)(C2)C3)ncn1` [Example 104, 3-(((6-cyanopyrimidin-4-yl)oxy)methyl)-N-(3,5-difluorobenzyl)bicyclo-[1.1.1]pentane-1-carboxamide]: 3050 nM; for `N#Cc1cccc(OCC23CC(C(=O)N4CC(F)CC4c4cccc(F)c4)(C2)C3)c1` (stereo not shown) [Example 107, 3-((3-(4-fluoro-2-(3-fluoro-phenyl)pyrrolidine-1-carbonyl)bicyclo[1.1.1]-pentan-1-yl)methoxy)-benzonitrile]: 183 nM; for `Cc1cccc(OCC23CC(C(=O)N4CC(F)CC4c4cccc(F)c4)(C2)C3)c1` (stereo not shown) [Example 108, (4-fluoro-2-(3-fluorophenyl)-pyrrolidin-1-yl)(3-((m-tolyloxy)methyl)bicyclo-[1.1.1]pentan-1-yl)methanone]: 206 nM.
On the same count and under the same terms, the same measure for `Cc1cccc(C2CCCN2C(=O)C23CC(C2)C3)c1` (stereo not shown) [Example 113, bicyclo[1.1.1]pentan-1-yl(2-(m-tolyl)pyrrolidin-1-yl)methanone]: 4230 nM; for `O=C(N1CCC(Oc2ccccc2)C1)C12CC(F)(C1)C2` (stereo not shown) [Example 114, (3-fluorobicyclo[1.1.1]-pentan-1-yl)(3-phenoxypyrrolidin-1-yl)methanone]: > 16700 nM and 8900 nM.
Same read-out and setting: the same measure for `CCOC12CC(C(=O)N3CCCC3c3cccc(C)c3)(C1)C2` (stereo not shown) [Example 122, (3-ethoxybicyclo[1.1.1]-pentan-1-yl)(2-(m-tolyl)-pyrrolidin-1-yl)methanone]: 998 nM.
Regarding `N#Cc1cncn1CC12CC(C(=O)N3N=CCC3c3cc(F)cc(F)c3)(C1)C2` (stereo not shown) [Example 123, 1-((3-(5-(3,5-difluorophenyl)-4,5-dihydro-1H-pyrazole-1-carbonyl)bicyclo[1.1.1]-pentan-1-yl)methyl)-1H-imidazole-5-carbonitrile], the IC50 was found to be 501 nM.
Still for that read-out and setting: with `O=C(N1N=CCC1c1cc(F)cc(F)c1)C12CC(CN3C(=O)C4(CC4)c4ccccc43)(C1)C2` (stereo not shown) [Example 125, 1′-((3-(5-(3,5-difluorophenyl)-4,5-dihydro-1H-pyrazole-1-carbonyl)-bicyclo[1.1.1]pentan-1-yl)methyl)-spiro[cyclopropane-1,3′-indolin]-2′-one] the figure was 2800 nM; with `COCc1cn(CC23CC(C(=O)N4N=CCC4c4cc(F)cc(F)c4)(C2)C3)nn1` (stereo not shown) [Example 149, (5-(3,5-difluorophenyl)-4,5-dihydro-1H-pyrazol-1-yl)(3-((4-(methoxymethyl)-1H-1,2,3-triazol-1-yl)methyl)-bicyclo[1.1.1]pentan-1-yl)methanone], 3930 nM.
Take `O=C(N1N=CCC1c1cc(F)cc(F)c1)C12CC(Cn3cc(CO)nn3)(C1)C2` (stereo not shown) [Example 150, (5-(3,5-difluorophenyl)-4,5-dihydro-1H-pyrazol-1-yl)(3-((4-(hydroxymethyl)-1H-1,2,3-triazol-1-yl)methyl)-bicyclo[1.1.1]pentan-1-yl)methanone]: the IC50 came to 5460 nM.
The same measure, in the same setting: the same measure for `O=C(N1N=CCC1c1cc(F)cc(F)c1)C12CC(CN3CC(c4ccccc4)C3)(C1)C2` (stereo not shown) [Example 154, (5-(3,5-difluorophenyl)-4,5-dihydro-1H-pyrazol-1-yl)(3-((3-phenylazetidin-1-yl)-methyl)bicyclo[1.1.1]pentan-1-yl)methanone]: 4860 nM.

(Values after patent publication US20250214942A1, “INHIBITORS OF RECEPTOR INTERACTING PROTEIN KINASE I FOR THE TREATMENT OF DISEASE” (Board of Regents, The University of Texas System, priority 2019, published 2025).)
